Measured values published in publication PMC10789292 (Journal of Alzheimer's Disease Reports, 2023).

Test system: cPLA2-IVA expressed in mouse brain
Test: Peptide binding to brain slices by IHC
Conditions: for Binding (staining) to healthy NMRI and APP/PS1 mouse brain slices: biotinylated peptide 20 μM in HCN, overnight 4°C, DAB detection

Sequence | Binding (staining) to healthy NMRI and APP/PS1 mouse brain slices | Staining of APP/PS1 versus healthy brain slices (biotinylated peptide 20 μM, 2 years old APP/PS1 mice)
DDFRVWWPNFPR [PLP2] | good staining | –
HVTLRYMHPMVS [PLP25] | good staining | higher staining of APP/PS1 brain slices
YQFGYDYPRSQV [PLP1] | unable to bind the brain tissue | –
